The values that follow come from patent US20110200531A1, “TREATMENT AND DIAGNOSIS OF CENTRAL NERVOUS SYSTEM DISORDERS” (THE REGENTS OF THE UNIVERSITY OF CALIFORNIA, priority 2009, published 2011).

“Also recorded” adds a separate entry of the source.

The subject of data set [1] is Primary neurons treated with Aβ1-42. Briefly: Neuronal survival in primary neuronal cultures treated with pre-aggregated Aβ1-42. Format: cell-based, C57BL mice. The conditions noted are these: 50 μM TMP with pre-aggregated Aβ1-42. Here is the method: Primary neurons prepared from postnatal 1 day C57BL mice were treated with pre-aggregated Aβ1-42 combined with either 50 μM TMP or equal volume of vehicle at day 5 after plating. […] Nuclei were counterstained as blue by Hoechst 33342 (Hoec). Scale bar=100 μm in b & e; 80 μm a, d, f; 60 μm in c; and 40 μm in B.

The subject of data set [2] is rat brains following kainate-induced seizures. Description: Neuronal degeneration in rat brains following kainate-induced seizures (H&E, TUNEL). Type of data set: in vivo, Sprague-Dawley rats. The conditions noted are these: KA 10.5 mg/Kg s.c., TMP 50 mg/Kg s.c. 1 hr after onset of seizures. Here is the method: One month-old Sprague-Dawley rats were subcutaneously (s.c.) administrated kainite (KA) (10.5 mg/Kg). 1 hr after the onset of seizures animals were given TMP (50 mg/Kg, s.c.) or equal volume of vehicle. All the animals were sacrificed 24 hr after TMP or vehicle injection under deep anesthesia. […] Scale bar=100 μm in b, d, e, g, i, j, 1, n and o; and 400 μm in a, c, f, h, k and m.

A further data set concerns retinas of 3×Tg-AD mice. Description: Retinal pathology in 3×Tg-AD mice. Format: in vivo.
The test system of a further data set is 3×Tg-AD mouse brain. Description: Brain pathology in 3×Tg-AD mice fed TMP-containing diet. Type of data set: in vivo. As to the method: (A) 16-month old triple-transgenic mice (3×Tg-AD, females) were fed with TMP containing (300 mg TMP/Kg diet) or nutrients-matched control diet made by BioSery (Frenchtown, N.J.) for 70 days. […] Animals were euthanized and perfused with PBS following behavioral analyses. Half the brain was fixed with 4% paraformaldehyde (PFA) in 1×PBS and sectioned using a microtome at 40 μm, while the other half-brain was dissected and rapidly frozen for biochemical analyses. […] The boxed areas in (a) is shown in (b) at higher magnification. […] The boxed areas in a & c are shown in b & d at higher magnification. Nuclei were stained as red by propidium iodide (PI). Scale bar=400 μm in A.a&c; 100 μm in B.a&c; 80 μm A.d&e, B.d; and 60 μm in A.b, B.b. (C) Glutathione (GSH) contents in the mouse brains were measured in the cortical lysates prepared from the 3×Tg AD mouse brains following TMP treatments or control using a Biovison Glutathione colorimetric detection kit. Lysates from age-matched untreated wild type mouse brains were used as controls (WT).
(§1) In these mice, the earliest pathological hallmark is the accumulation of intraneuronal Aβ in the hippocampus, cortex and amygdala in 4 month old 3×Tg-AD homozygous mice. […] Between 4-6 months of age 3×Tg-AD homozygous mice develop diffuse amyloid plaques in the neocortex. At 6 months the retention deficits are associated with significant impairments in spatial learning of the Morris Water Maze task. 16 Month old triple-transgenic female mice (3×Tg-AD) were fed TMP-containing (300 mg TMP/kg diet) or nutrients-matched control diet made by Biosery for 70 days. Brain and retina pathology was evaluated by immunohistochemistry with specific antibodies and learning and memory performance were scored using the Novel Object Recognition Task and using Morris Water Maze trials.

The next data set has as its system 5×FAD mouse brains. Briefly: Abeta immunoreactivity (6E10) in 5×FAD mouse brains. Format: in vivo, mice. As to conditions: chow containing 300 mg/Kg from postnatal day 61 for 4 months.
The test system of another data set is 3×Tg-AD mice. Briefly: Learning and memory in 3×Tg AD mice (novel object recognition, Morris water maze). Format: in vivo. The conditions noted are these: 16-month old 3×Tg-AD females. Here is the method: Both 16-month old 3×Tg-AD and background-matched wild type (WT) mice (females) were fed with TMPcontaining or nutrients matched control for 60 days as described in FIG. 3. (A) On day 61, all the mice were tested for object recognition as previously described. Briefly, mice (n=14 for each group) were habituated to a 60×30 cm container for 5 min. Two identical objects were placed in the bottom of the cage as mirror images of each other. The animal was trained for 5 min followed by a 5 min retention interval in the home cage. Then one of the objects in the test container was replaced with a novel object. During the 3-min probe trial, the mouse was placed in the cage and time spent investigating both objects was measured. A recognition index (R1) score is depicted as: (TimeN (in seconds for novel object)/TimeTotal (in seconds for both old and novel objects))×100. (B-D) Starting on day 62, all the mice were trained for 9 days on the Morris water maze (MWM) exactly as described for the behavior testing. […] (C) MWMprobe trial for number of platform location crosses, and (D) MWM probe trial for time spent in the target quadrant. As shown by the p values, (*) indicates significant improvement by TMP treatments with respect to the corresponding controls.
FIG. 21A-D: Improvement of learning and memory in aged 3×Tg AD mice by TMP treatment. Novel object recognition task was performed. A recognition index (R1) score is depicted as: [TimeN (in seconds for novel object)/TimeTotal (in seconds for both old and novel objects)]×100. B-D Starting on day 62, all the mice were trained for 9 days on the Morris water maze (MWM) for the behavior testing. […] (C) MWM probe trial for number of platform location crosses, and (D) MWM probe trial for time spent in the target quadrant. As shown by the p values, (*) indicates significant improvement by the compound treatments with respect to the corresponding controls.
as §1, with “TMP improves pathology in brains of 3×Tg-AD mice and results in increased memory and learning (See FIGS. 3, 4, and 10). In” for “In”, “16 Month old triple-transgenic female mice (3×Tg-AD) were fed TMP-containing (300 mg TMP/kg diet) or nutrients-matched control diet made by Biosery for 70 days.” left out
The ability of TMP-N to improve learning and memory in 3×Tg AD mice was assessed using novel object recognition task. […]

In another data set the test system is Thy1.2 promoter. Briefly: Luciferase-mediated Thy1.2 activity reporter in N2A cells. Format: cell-based, mouse. The conditions noted are these: TMP 50 μM, 24 hr.
Another data set concerns cells under stress. Description: Production of peroxides in cells under stress. Type of data set: cell-based.

Excerpt for 5×FAD mouse brains: Animal tissues were perfused with 1×PBS followed by overnight fixation in 4% paraformaldehyde in cold room. Vibrotome sections (˜50 μm thick) were immunostained with 6E10 antibody, which recognizes all forms of Abeta, and visualized by fluorescence microscopy.

Take `Cc1nc(C)c(C)nc1C` [TMP, tetramethylpyrazine]: the “mitochondrial depolarization (TMRM staining)” value in data set [1] is recorded as “very few cells”. Further, the “neuronal survival / morphological changes showing neuronal degeneration (DIC microscopy)” value in data set [1] (24 hr) is on record as “promotes neuronal survival; also recorded: not in these cells in the presence of TMP”. For the same compound, the “Quantification of TUNEL-positive cells in the hippocampal regions” value in data set [2] (24 hr) is recorded as “significant less number of damaged neurons”. For the same compound, the “neuronal damage/degeneration by H&E and TUNEL staining, hippocampal and piriform cortex regions” value in data set [2] (sacrificed 24 hr after) is “attenuates neuronal degeneration; also recorded: only exhibited a few sporadic pink (1) and TUNEL-positive cells”. In addition, in the data set with retinas of 3×Tg-AD mice, the “Astrocytic activation in the retinas” value is “inhibited”; the “Aβ plaques in the retinas” value is listed as “significantly reduces the number if Aβ plaques”; the “fibril and oligomer conformations of Aβ” value is “reduces both fibril and oligomer conformations of Aβ”; the “retinal pathologies associated with disease” value is “beneficial effects”. The “GFAP staining (astrocyte activation, astrogliosis) in brain” value with 3×Tg-AD mouse brain (300 mg TMP/Kg diet, 70 days) was “dramatically reduced Aβ accumulation and senile plaques as well as astrogliosis; also recorded: reduced intensity of GFAP staining”. The “Glutathione (GSH) contents in cortical lysates” value in the data set with 3×Tg-AD mouse brain (300 mg TMP/Kg diet, 70 days, colorimetric kit) is listed as “significantly increase GSH contents”. Moreover, the “adverse effects on the health of animals” value in the data set on 3×Tg-AD mouse brain (300 mg TMP/Kg diet, about 40~50 mg/Kg daily per os, 70 days) was “no adverse effects on the health of animals have been observed”. In the data set with 3×Tg-AD mouse brain (3×Tg AD mouse brains), the “BACE-related APP cleavage and Aβ accumulation in brains” value is “reduces BACE-related APP cleavage and Aβ accumulation”. Besides, the “Aβ staining / Aβ accumulation and senile plaques in brain (immunohistochemistry)” value in the data set on 3×Tg-AD mouse brain (16-month old females, 300 mg TMP/Kg diet, about 40~50 mg/Kg daily per os, 70 days, 50 mg/kg) was “dramatically reduced Aβ accumulation and senile plaques; also recorded: markedly reduced levels of Aβ staining”. Also, the “Abeta immunoreactivity / deposits in brain (6E10)” value with 5×FAD mouse brains is given as “reduction Abeta immunoreactivity”. In addition, in the data set on 3×Tg-AD mice (TMP diet 60 days, trained 9 days from day 62), the “Morris water maze (MWM) acquisition performance” value is “significantly improved the performance of 3×Tg-AD mice”. Moreover, the “learning and memory (object recognition, MWM probe trials)” value with 3×Tg-AD mice (TMP-containing diet) is “significant improvements in learning and memory; also recorded: improves learning and memory”. Also, the “Thy1.2 activity (luciferase-positive cells relative to all transfected cells)” value in the data set on Thy1.2 promoter is “no influence of TMP on Thy1.2 activity”. Moreover, in the data set with cells under stress, the production of peroxides entry is “inhibits the production of peroxides”.
